Reference: ChEMBL document CHEMBL1144455, “A small molecule-kinase interaction map for clinical kinase inhibitors” (Nat Biotechnol, 2005)

Columns and labels:
[1] = biological target: Mitogen-activated protein kinase 10 (Homo sapiens, UniProt P53779)
[2] = biological target: Dual specificity protein kinase CLK1 (Homo sapiens, UniProt P49759)
[3] = biological target: Serine/threonine-protein kinase PAK 1 (Homo sapiens, UniProt Q13153)
Ephrin type-A receptor 5 = Ephrin type-A receptor 5 (Homo sapiens, UniProt P54756)
[4] = biological target: Tyrosine-protein kinase Yes (Homo sapiens, UniProt P07947)
[5] = biological target: Tyrosine-protein kinase CSK (Homo sapiens, UniProt P41240)
Ephrin type-A receptor 3 = biological target: T1, Ephrin type-A receptor 3 (Homo sapiens, UniProt P29320)
T1 sequence (P29320 whole entry): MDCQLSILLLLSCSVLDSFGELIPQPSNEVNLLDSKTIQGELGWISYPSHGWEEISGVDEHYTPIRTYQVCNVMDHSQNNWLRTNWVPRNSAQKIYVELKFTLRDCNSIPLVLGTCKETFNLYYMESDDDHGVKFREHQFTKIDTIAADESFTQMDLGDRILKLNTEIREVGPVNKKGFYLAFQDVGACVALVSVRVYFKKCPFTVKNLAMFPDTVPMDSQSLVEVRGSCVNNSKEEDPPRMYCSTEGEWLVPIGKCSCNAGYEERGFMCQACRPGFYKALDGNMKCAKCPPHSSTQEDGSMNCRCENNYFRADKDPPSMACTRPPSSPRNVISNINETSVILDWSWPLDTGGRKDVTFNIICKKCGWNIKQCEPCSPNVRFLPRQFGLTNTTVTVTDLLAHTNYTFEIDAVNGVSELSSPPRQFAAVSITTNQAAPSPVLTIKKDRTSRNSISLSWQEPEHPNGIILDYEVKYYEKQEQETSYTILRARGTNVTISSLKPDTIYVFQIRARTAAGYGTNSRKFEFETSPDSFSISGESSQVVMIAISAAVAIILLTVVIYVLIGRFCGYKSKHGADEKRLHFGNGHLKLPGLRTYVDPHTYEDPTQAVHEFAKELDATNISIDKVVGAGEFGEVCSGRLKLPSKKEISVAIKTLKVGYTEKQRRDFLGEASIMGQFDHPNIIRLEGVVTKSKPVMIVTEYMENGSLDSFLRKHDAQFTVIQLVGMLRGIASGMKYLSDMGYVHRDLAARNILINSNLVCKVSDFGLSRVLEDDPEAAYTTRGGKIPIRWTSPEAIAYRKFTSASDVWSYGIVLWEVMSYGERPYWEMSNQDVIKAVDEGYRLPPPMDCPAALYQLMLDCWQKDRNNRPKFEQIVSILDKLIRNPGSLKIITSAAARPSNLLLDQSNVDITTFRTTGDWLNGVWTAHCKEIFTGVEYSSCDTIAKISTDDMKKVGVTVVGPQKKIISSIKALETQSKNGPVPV

[6] = biological target: T2, Serine/threonine-protein kinase PLK4 (Homo sapiens, UniProt O00444)
T2 sequence (O00444 whole entry): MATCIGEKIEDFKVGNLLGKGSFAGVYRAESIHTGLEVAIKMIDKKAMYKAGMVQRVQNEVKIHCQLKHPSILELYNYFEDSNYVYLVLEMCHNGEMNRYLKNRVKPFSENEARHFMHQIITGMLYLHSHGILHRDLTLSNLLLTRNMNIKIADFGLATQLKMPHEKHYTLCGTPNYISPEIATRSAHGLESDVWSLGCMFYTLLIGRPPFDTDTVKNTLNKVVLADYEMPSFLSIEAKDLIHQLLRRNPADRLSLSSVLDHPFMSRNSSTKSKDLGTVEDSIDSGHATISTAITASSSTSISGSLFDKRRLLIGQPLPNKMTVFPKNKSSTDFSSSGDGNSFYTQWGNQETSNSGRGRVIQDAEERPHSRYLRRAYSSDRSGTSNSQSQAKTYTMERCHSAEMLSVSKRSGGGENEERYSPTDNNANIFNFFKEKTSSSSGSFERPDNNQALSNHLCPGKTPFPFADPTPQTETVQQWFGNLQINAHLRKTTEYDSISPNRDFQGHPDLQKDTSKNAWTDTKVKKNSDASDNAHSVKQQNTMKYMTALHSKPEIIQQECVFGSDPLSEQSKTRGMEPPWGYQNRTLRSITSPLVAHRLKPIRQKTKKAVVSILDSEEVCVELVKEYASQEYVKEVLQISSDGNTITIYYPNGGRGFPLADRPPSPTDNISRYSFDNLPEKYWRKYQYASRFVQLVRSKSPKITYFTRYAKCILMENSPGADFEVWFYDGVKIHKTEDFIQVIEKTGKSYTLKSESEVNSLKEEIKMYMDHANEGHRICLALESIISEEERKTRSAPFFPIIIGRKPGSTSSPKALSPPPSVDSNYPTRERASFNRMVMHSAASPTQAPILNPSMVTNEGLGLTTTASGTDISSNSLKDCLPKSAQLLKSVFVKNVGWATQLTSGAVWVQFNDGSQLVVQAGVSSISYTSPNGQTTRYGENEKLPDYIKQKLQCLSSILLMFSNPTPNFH

[7] = biological target: Dual specificity protein kinase CLK4 (Homo sapiens, UniProt Q9HAZ1)
[8] = biological target: T3, Serine/threonine-protein kinase 4 (Homo sapiens, UniProt Q13043)
T3 sequence (Q13043 whole entry): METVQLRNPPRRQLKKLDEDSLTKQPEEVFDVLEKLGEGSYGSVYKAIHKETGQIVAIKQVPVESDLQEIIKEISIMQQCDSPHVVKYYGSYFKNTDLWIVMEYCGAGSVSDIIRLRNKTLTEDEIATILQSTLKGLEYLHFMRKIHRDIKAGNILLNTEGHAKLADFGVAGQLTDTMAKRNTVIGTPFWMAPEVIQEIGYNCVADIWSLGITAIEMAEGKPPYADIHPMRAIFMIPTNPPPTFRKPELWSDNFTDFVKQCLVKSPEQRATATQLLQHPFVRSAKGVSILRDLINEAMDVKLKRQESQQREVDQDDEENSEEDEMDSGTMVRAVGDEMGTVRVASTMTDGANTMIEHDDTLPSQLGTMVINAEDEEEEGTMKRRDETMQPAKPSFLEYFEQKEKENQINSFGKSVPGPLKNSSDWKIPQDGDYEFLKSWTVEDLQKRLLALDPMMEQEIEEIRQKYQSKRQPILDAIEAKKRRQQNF

[9] = biological target: Ribosomal protein S6 kinase alpha-5 (Homo sapiens, UniProt O75582)
Sequence of Ribosomal protein S6 kinase alpha-5 (O75582 whole entry): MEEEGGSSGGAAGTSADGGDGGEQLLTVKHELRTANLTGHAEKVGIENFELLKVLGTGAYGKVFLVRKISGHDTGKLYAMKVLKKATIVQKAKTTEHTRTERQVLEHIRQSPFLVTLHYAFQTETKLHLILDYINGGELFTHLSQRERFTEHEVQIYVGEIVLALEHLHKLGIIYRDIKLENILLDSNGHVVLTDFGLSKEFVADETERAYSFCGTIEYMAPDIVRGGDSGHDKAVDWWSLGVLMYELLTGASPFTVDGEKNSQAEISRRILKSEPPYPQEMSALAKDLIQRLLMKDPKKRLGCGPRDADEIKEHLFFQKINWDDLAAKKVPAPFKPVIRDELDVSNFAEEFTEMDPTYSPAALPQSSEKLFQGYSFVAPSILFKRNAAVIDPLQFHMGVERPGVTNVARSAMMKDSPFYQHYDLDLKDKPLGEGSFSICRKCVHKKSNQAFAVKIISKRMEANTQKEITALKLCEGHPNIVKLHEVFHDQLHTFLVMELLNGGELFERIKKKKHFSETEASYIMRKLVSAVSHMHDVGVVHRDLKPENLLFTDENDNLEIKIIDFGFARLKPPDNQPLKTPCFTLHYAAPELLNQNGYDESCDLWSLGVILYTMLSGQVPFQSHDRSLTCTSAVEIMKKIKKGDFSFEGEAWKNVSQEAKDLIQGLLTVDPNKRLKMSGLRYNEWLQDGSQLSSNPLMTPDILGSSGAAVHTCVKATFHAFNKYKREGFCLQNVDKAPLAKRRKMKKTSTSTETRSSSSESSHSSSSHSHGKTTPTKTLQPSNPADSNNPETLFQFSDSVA

Sequence of Tyrosine-protein kinase Yes (P07947 whole entry): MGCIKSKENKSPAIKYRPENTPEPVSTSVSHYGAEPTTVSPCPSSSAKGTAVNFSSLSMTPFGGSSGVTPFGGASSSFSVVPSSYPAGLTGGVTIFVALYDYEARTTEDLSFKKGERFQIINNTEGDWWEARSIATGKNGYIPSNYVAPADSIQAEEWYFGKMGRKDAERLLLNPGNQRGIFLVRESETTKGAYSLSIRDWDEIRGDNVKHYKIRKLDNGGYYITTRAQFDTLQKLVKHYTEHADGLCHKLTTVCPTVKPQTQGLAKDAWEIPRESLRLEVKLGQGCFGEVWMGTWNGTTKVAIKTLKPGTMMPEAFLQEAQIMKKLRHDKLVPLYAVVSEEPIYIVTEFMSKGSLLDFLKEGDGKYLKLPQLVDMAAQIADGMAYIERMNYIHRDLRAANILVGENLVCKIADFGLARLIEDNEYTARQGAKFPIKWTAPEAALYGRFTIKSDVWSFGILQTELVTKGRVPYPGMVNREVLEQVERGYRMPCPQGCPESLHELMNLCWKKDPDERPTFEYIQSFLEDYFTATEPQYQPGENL
Sequence of Mitogen-activated protein kinase 10 (P53779 whole entry): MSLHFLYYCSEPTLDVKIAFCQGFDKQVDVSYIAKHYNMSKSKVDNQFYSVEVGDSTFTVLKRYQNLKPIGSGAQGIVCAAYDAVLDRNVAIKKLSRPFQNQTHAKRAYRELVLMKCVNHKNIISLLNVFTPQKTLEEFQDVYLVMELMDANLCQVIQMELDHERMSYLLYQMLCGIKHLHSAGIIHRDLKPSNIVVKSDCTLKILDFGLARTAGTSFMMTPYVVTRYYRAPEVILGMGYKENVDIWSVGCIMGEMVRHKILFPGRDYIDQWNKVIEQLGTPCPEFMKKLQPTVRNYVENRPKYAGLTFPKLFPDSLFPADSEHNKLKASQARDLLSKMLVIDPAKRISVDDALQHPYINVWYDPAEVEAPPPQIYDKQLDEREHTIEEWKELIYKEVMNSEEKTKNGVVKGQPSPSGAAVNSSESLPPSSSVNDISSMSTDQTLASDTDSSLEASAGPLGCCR
Sequence of Dual specificity protein kinase CLK4 (Q9HAZ1 whole entry): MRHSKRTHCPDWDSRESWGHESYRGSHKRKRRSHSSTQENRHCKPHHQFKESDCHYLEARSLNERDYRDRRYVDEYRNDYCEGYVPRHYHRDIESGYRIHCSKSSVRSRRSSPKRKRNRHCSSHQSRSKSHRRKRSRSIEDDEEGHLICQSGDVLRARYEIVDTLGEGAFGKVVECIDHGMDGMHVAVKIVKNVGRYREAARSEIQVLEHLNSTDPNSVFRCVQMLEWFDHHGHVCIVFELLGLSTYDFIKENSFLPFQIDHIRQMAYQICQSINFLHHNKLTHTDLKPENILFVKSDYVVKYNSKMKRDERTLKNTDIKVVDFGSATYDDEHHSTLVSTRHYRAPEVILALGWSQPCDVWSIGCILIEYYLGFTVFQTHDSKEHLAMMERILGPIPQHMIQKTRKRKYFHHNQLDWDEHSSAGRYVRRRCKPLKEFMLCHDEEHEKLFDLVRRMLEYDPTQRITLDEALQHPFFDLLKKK
Sequence of Tyrosine-protein kinase CSK (P41240 whole entry): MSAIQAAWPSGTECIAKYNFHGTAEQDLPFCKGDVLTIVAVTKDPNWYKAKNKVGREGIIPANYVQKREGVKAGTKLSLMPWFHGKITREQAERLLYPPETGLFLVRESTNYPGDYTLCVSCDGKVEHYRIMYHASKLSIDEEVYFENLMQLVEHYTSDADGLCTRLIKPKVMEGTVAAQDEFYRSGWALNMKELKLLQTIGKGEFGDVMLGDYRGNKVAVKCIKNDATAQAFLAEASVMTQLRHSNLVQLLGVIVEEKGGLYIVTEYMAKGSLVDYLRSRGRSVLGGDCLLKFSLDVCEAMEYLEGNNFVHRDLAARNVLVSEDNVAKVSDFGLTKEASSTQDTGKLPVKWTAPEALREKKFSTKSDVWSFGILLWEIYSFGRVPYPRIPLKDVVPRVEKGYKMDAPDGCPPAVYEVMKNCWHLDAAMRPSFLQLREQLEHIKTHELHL
Sequence of Serine/threonine-protein kinase PAK 1 (Q13153 whole entry): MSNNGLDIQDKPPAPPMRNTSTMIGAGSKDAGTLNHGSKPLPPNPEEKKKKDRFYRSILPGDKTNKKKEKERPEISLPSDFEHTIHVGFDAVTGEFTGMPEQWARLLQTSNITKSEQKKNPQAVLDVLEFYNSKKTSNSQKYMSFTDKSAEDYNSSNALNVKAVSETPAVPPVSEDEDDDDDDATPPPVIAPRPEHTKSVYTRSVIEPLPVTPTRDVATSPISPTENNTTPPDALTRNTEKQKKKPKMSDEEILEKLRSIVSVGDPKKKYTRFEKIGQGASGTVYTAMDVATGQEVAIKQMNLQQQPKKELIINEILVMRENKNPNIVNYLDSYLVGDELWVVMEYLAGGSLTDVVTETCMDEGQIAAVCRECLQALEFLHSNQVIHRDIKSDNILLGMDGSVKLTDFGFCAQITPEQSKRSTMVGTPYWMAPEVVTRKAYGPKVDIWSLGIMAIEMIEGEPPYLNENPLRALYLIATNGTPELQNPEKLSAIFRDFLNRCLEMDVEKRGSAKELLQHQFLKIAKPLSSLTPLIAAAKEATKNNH
Sequence of Ephrin type-A receptor 5 (P54756 whole entry): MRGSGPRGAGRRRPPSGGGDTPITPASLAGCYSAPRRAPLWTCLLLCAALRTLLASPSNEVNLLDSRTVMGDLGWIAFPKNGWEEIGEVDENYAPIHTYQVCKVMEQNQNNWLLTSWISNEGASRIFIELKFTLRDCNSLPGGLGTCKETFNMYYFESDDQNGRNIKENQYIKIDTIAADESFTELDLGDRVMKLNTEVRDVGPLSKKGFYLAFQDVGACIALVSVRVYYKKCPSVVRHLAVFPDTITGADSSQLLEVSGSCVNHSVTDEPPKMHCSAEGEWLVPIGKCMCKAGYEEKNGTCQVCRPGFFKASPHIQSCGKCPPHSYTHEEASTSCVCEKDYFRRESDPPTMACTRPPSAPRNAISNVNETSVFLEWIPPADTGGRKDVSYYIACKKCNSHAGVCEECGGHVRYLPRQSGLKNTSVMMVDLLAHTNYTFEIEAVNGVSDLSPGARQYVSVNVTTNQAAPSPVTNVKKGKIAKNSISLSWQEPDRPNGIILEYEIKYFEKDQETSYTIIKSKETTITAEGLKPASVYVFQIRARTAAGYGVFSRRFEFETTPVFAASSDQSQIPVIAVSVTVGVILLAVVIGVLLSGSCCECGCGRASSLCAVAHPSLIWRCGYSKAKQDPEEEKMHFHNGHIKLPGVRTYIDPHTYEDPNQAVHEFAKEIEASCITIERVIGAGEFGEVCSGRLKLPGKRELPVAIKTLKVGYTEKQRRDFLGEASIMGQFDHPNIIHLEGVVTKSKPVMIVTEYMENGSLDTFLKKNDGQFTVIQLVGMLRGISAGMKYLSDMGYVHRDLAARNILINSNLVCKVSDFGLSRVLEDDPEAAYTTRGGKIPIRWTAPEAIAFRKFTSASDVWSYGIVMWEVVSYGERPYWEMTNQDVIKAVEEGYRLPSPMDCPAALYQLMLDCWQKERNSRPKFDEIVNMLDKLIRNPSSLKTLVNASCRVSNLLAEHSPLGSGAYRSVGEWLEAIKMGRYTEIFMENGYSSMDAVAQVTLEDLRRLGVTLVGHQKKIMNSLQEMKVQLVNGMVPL
Sequence of Dual specificity protein kinase CLK1 (P49759 whole entry): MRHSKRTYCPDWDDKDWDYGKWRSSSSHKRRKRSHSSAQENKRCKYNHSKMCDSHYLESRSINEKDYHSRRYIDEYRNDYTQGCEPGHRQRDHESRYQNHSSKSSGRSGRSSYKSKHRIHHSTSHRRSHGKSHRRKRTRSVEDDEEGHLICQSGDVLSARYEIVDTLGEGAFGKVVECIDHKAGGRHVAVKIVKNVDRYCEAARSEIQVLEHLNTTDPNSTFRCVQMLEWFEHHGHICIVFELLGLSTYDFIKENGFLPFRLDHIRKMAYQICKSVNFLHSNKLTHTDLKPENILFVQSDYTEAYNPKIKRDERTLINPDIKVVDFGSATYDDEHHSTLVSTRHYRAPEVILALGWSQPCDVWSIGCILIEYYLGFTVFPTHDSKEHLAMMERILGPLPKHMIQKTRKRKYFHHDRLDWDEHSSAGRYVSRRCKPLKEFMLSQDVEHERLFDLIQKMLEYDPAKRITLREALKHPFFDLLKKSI

**Q.** With `Oc1ccc(-c2nc(-c3ccc(F)cc3)c(-c3ccncc3)[nH]2)cc1` [SB-202190] as the molecule, how does the Kd [1] read?
**A.** 51 nM

**Q.** `CCOc1cc2ncc(C#N)c(Nc3ccc(F)c(Cl)c3)c2cc1NC(=O)/C=C/CN(C)C` [PELITINIB] was tested. Which Kd [2] did it give?
**A.** 1000 nM

**Q.** And the Kd [3]?
**A.** 2100 nM

**Q.** What about the Kd (Ephrin type-A receptor 5) of the same molecule?
**A.** 710 nM

**Q.** And the Kd [4]?
**A.** 840 nM

**Q.** What about the Kd [5] of the same molecule?
**A.** 2300 nM

**Q.** For `Oc1c2ccccc2c2c3c(cccc13)N=N2` [SP-600125], which Kd (Ephrin type-A receptor 3) is on record?
**A.** 4000 nM

**Q.** What about the Kd [6] of the same molecule?
**A.** 770 nM

**Q.** And the Kd [7]?
**A.** 260 nM

**Q.** What about the Kd [8] of the same molecule?
**A.** 2200 nM

**Q.** What about the Kd [9] of the same molecule?
**A.** 1700 nM
